Data taken from ChEMBL document CHEMBL1142202, “Putative role of beta-1,3 glucans in Candida albicans biofilm resistance” (2007).
In brackets after ≈: the same amount, converted by molar mass. Activity calls are given as the source filed them. The rule behind the calls is not given here.

Legend:
[1] = test system: Candida albicans; test: Increase in antifungal activity against Candida albicans K1 biofilm cells assessed as 50 percent reduction of optical density in presence of beta 1,3 glucanase after 48 hrs by XTT assay; assay type: functional
[2] = test system: Candida albicans; test: Increase in antifungal activity against Candida albicans K1 biofilm cells assessed as 80 percent reduction of optical density in presence of beta 1,3 glucanase after 48 hrs by XTT assay; assay type: functional
[3] = test system: Candida albicans; test: Antifungal activity against Candida albicans K1 biofilms in in-vivo rat catheter model in presence of beta 1,3-glucanase; assay type: functional, organism-based
[4] = test system: Candida albicans; test: Antifungal activity against planktonic Candida albicans K1; assay type: functional
[5] = test system: Candida albicans; test: Antifungal activity against planktonic Candida albicans K1 in presence of laminarin after 48 hrs by CLSI M27 A micro-broth method; assay type: functional; conditions: K1, 48 h
[6] = test system: Candida albicans; test: Increase in drug binding to Candida albicans K1 biofilm cell walls, supernatant and matrix as compared to respective planktonic controls; assay type: functional, organism-based
[7] = test system: Candida albicans; test: Antifungal activity against planktonic Candida albicans K1 in presence of biofilm material after 48 hrs by CLSI M27 A micro-broth method; assay type: functional; conditions: K1, 48 h
[8] = test system: Candida albicans; test: Effect on biofilm cell viability of Candida albicans K1 at 1000 ug/ml; assay type: functional, organism-based

Row | SMILES | fractional inhibitory concentration index (FICI) [1] | fractional inhibitory concentration index (FICI) [2] | Activity [3] | MIC [4] [µg/mL] | MIC [5] [µg/mL] | Activity [6] | MIC [7] [µg/mL] | Activity [8]
1 | C[C@@H]1[C@H](O)[C@@H](C)/C=C/C=C/C=C/C=C/C=C/C=C/C=C/[C@H](O[C@@H]2O[C@H](C)[C@@H](O)[C@H](N)[C@@H]2O)C[C@@H]2O[C@](O)(C[C@@H](O)C[C@@H](O)[C@H](O)CC[C@@H](O)C[C@@H](O)CC(=O)O[C@H]1C)C[C@H](O)[C@H]2C(=O)O [AMPHOTERICIN B] | 0.2 | 0.21 | – | – | – | – | – | –
2 | OC(Cn1cncn1)(Cn1cncn1)c1ccc(F)cc1F [FLUCONAZOLE] | 0.31 | 0.1 | Active | 0.5 (≈ 1.63 µM) | > 128 | Active | > 128 | inactive
